Assay results: patent US8841277B2, “Methods for treating non-small cell lung cancer using 5-azacytidine” (Celgene Corporation, priority 2009, dated 2014)
“Also recorded” adds a separate entry of the source.

Tests used:
H460 cells [1] = test: Western analysis of DNA damage and apoptosis markers, H460; type: cell-based; details: for Induction of Histone H2AX phosphorylation / Induction of PARP cleavage: 0.3-10 μM; for Induction of Histone H2AX phosphorylation: 24 h, 48 h, up to 72 hour
Method: These studies also examined apoptosis using an assay for PARP cleavage. Cells studied included H460, A549, and H1299 cells.
For western analyses of protein levels, cells were washed with PBS and lysed with RIPA buffer (Cell Signaling Technology, Inc.; Danvers, Mass.) containing 350 mM NaCl and 0.1% SDS. Cell lysates were sonicated with two 5-second bursts under low amplitude (20%) using the Digital Sonic Dismembrator (Thermo Fisher Scientific, Inc.; Waltham, Mass.). Proteins were separated on 4-12% Bis-Tris NuPAGE gels (Life Technologies Corporation) and transferred to nitrocellulose membranes. DNMT1, phos-Histone-H2AX(Ser139), total Histone-H2AX, cleaved-PARP, p21, p53, and alpha-tubulin were detected using the Li-Cor Odyssey imaging system (Li-Cor Biotechnology; Lincoln, Nebr.), following incubation with the appropriate primary and secondary antibodies. The phos-Histone-H2AX(Ser139), cleaved-PARP, and p21 antibodies were from Cell Signaling Technology, Inc. The p53 and total Histone-H2AX (C-20) antibodies were from Santa Cruz Biotechnology, Inc. (Santa Cruz, Calif.). The alpha-tubulin and DNMT1 antibodies were purchased from EMD Chemicals, Inc. (Gibbstown, N.J.) and Abcam, Inc. (Cambridge, Mass.), respectively. The goat anti-Rabbit IRDye 680, goat anti-Mouse IRDye 800CW, and donkey anti-Goat IRDye 800CW secondary antibodies were from Li-Cor Biotechnology.

A549 cells [2] = test: Apoptosis (AnnexinV-FITC/7-AAD), A549; type: cell-based; details: 0.3-10 μM
From the text: (§1) For cell cycle distribution, cells were stained with the NIM-DAPI reagent (Beckman Coulter, Inc.; Fullerton, Calif.). For measurement of early- and late-apoptotic cell populations, cells were stained with AnnexinV-FITC and 7-AAD reagents (Beckman Coulter, Inc.). Samples were processed according to manufacturer's instructions and analyzed on a Cell Lab Quanta MPL flow cytometer (Beckman Coulter, Inc.). […] Data were also collected for untreated cells as control.

DNMT1 = DNMT1 protein depletion, H23; type: cell-based; details: H23 cell line
Method: Reduced DNMT1 levels were detected in these cell lines as early as 4 hours after drug treatment (FIG. 17).

A549 cells [3] = test: Gene expression microarray analysis, A549; type: cell-based, human; details: 48 hours; for Downregulated Genes: AZA-Specific / DAC-Specific Genes (number) / Upregulated Genes: AZA-Specific / DAC-Specific Genes (number) / Downregulated Genes: Genes in Common (number) / Upregulated Genes: Genes in Common (number) / Regulation of genes in the Response to DNA Damage Stimulus/DNA Repair biogroup: A549; for Downregulated Genes: Genes in Common (number) / Upregulated Genes: Genes in Common (number): regulated by both AZA and DAC;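 for Downregulated Genes: AZA-Specific / DAC-Specific Genes (number): drug dose range 0.3 to 3 µM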;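 for Downregulated Genes: Genes in Common (number): drug dose range 0.3 to 3 µM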;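 for Upregulated Genes: AZA-Specific / DAC-Specific Genes (number): drug dose range 0.3 to 3 µM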;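 for Upregulated Genes: Genes in Common (number): drug dose range 0.3 to 3 µM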
Method: (§2) Cells were lysed using the TRIzol reagent (Life Technologies Corporation) and total RNA was isolated using miRNeasy (Qiagen). Double-stranded cDNA and biotin-labeled cRNA were synthesized using 100 ng of total RNA using Ambion's MessageAmp Premier RNA Amplification Kit (ABI; Foster City, Calif.). Biotin-labeled cRNA, at 10 μg, was fragmented and hybridized to each human U133A 2.0 genechip (Affymetrix; Santa Clara, Calif.). The GC-RMA algorithm was used for normalization and all analyses were done using GeneSpring 7.3 (Agilent; Santa Clara, Calif.). Averaged signals from biological duplicate samples were used to determine fold change (Treated vs. Untreated), with an absolute fold change of ≧1.7 defining regulated genes. NextBio was used to identify regulated Gene Ontology biogroups from lists of regulated genes. The top 15 biogroups are those with the lowest p-values calculated within NextBio.
(§3) The number of genes modulated in common between the two drugs was low.
(§4) Functional groupings of the modulated genes were determined using Gene Ontology classifications in Nextbio (http://www.nextbio.com/).

H23 cells = test: Cell viability (CyQuant assay), H23; type: cell-based; details: 72 hours; for HillSlope / LogIC50 / IC50: H23 viability, best-fit value; for EC50 / IC50: Homo sapiens, NCI-H23; for EC50: H23, read-out: EC50 of effect on viability
Method: Certain NSCLC cell lines (H460, H1299, A549, and H1975) were purchased from American Type Culture Collection (ATCC; Manassas, Va.). The H23NSCLC cell line was obtained from the National Cancer Institute (NCI; Bethesda, Md.). Cell lines were cultured in their respective media, as recommended by ATCC and NCI. AZA was manufactured at Aptuit (Greenwich, Conn.) for Celgene (Summit, N.J.), while DAC was purchased from Sigma-Aldrich (St. Louis, Mo.). In all experiments, cells were seeded 24 hours before drug treatment and incubated at 37° C./5% CO2, For cell viability assays, H460, H1299, A549, H23, and H1975 cells were seeded in triplicate at 1×10^3, 1×10^3, 1×10^3, 4×10^3, and 4×10^3 cells per well, respectively, in 96-well plates, using 200 μL of medium per well. Fresh drug was added every 24 hours by replacing medium with drug-containing medium. For all other assays, cells were seeded at 0.6-1.2×10^5 cells per well, in 6-well plates, using 4 mL of medium per well, with fresh drug added directly to the medium every 24 hours.
Cell viability was assessed using the CyQuant assay (Life Technologies Corporation; Carlsbad, Calif.). Fluorescence was measured with a spectrophotometer (Molecular Devices; Sunnyvale, Calif.), and EC50 values were calculated in Prism® version 5.01 (GraphPad Software, Inc.; La Jolla, Calif.), using results from three independent experiments.
The six data sets represent calculations of EC50 values from raw data using Prism®. The standard deviation among the three independent experiments was determined at each drug concentration. For some of the cell lines, Prism® was not able to calculate the EC50 for DAC. For those curves that an EC50 was available, the SE (Std. Error) was acceptable (SE of the logEC50 should be less than 0.5), meaning that the standard errors were not too large. The 95% Confidence Intervals for the EC50 were considered as a measure of error.

H1299 cells = test: Gene expression microarray analysis, H1299; type: cell-based, human; details: 48 hours; for Downregulated Genes: AZA-Specific / DAC-Specific Genes (number) / Upregulated Genes: AZA-Specific / DAC-Specific Genes (number) / Downregulated Genes: Genes in Common (number) / Upregulated Genes: Genes in Common (number): H1299; for Downregulated Genes: Genes in Common (number) / Upregulated Genes: Genes in Common (number): regulated by both AZA and DAC;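 for Downregulated Genes: AZA-Specific / DAC-Specific Genes (number): drug dose range 0.3 to 3 µM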;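 for Downregulated Genes: Genes in Common (number): drug dose range 0.3 to 3 µM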;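 for Upregulated Genes: AZA-Specific / DAC-Specific Genes (number): drug dose range 0.3 to 3 µM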;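 for Upregulated Genes: Genes in Common (number): drug dose range 0.3 to 3 µM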
Method: as §2, §3, §4

H460 cells [4] = test: Cell cycle distribution (NIM-DAPI), H460; type: cell-based
From the text: These studies examined the cell cycle distribution of NSCLC cells treated with AZA or DAC using NIM-DAPI analysis.
as §1

Nc1ncn([C@@H]2O[C@H](CO)[C@@H](O)[C@H]2O)c(=O)n1 [AZA, 4-amino-1-β-D-ribofuranosyl-1,3,5-triazin-2(1H)-one]
Concentrations affecting Histone H2AX phosphorylation and PARP cleavage (H460 cells [1]): above 1 μM | Induction of Histone H2AX phosphorylation (H460 cells [1]): induced | Induction of PARP cleavage (H460 cells [1]; 24 h and 48 h): induced | Early- and late-apoptotic cell populations (AnnexinV/7-AAD) (A549 cells [2]; 48-hour treatment): dramatic increase in early-apoptotic (AnnexinV^+ 7-AAD^−) and late-apoptotic (AnnexinV^+ 7-AAD^+) cells | DNMT1 depletion (DNMT1): time- and dose-dependent depletion | Downregulated Genes: AZA-Specific / DAC-Specific Genes (number) (A549 cells [3]; 0.3 μM): 14 | Upregulated Genes: AZA-Specific / DAC-Specific Genes (number) (A549 cells [3]; 0.3 μM, fold change ≧1.7): 16 | Downregulated Genes: Genes in Common (number) (A549 cells [3]; 0.3 μM): 11 | Upregulated Genes: Genes in Common (number) (A549 cells [3]; 0.3 μM): 17 | Downregulated Genes: AZA-Specific / DAC-Specific Genes (number) (A549 cells [3]; 1.0 μM): 273 | Upregulated Genes: AZA-Specific / DAC-Specific Genes (number) (A549 cells [3]; 1.0 μM): 279 | Downregulated Genes: Genes in Common (number) (A549 cells [3]; 1.0 μM): 30 | Upregulated Genes: Genes in Common (number) (A549 cells [3]; 1.0 μM): 45 | Downregulated Genes: AZA-Specific / DAC-Specific Genes (number) (A549 cells [3]; 3.0 μM): 560 | Upregulated Genes: AZA-Specific / DAC-Specific Genes (number) (A549 cells [3]; 3.0 μM): 636 | Downregulated Genes: Genes in Common (number) (A549 cells [3]; 3.0 μM): 55 | Upregulated Genes: Genes in Common (number) (A549 cells [3]; 3.0 μM): 66 | Regulation of genes in the Response to DNA Damage Stimulus/DNA Repair biogroup (A549 cells [3]): general upregulation | HillSlope (H23 cells): −1.054 | LogIC50 (H23 cells): 1.005 | EC50 (H23 cells): 10.1 µM | IC50 (H23 cells): 10.1 µM | Downregulated Genes: AZA-Specific / DAC-Specific Genes (number) (H1299 cells; 0.3 μM): 33 | Upregulated Genes: AZA-Specific / DAC-Specific Genes (number) (H1299 cells; 0.3 μM): 10 | Downregulated Genes: Genes in Common (number) (H1299 cells; 0.3 μM): 45 | Upregulated Genes: Genes in Common (number) (H1299 cells; 0.3 μM): 55 | Downregulated Genes: AZA-Specific / DAC-Specific Genes (number) (H1299 cells; 1.0 μM): 393 | Upregulated Genes: AZA-Specific / DAC-Specific Genes (number) (H1299 cells; 1.0 μM): 435 | Downregulated Genes: Genes in Common (number) (H1299 cells; 1.0 μM): 107 | Upregulated Genes: Genes in Common (number) (H1299 cells; 1.0 μM): 135 | Downregulated Genes: AZA-Specific / DAC-Specific Genes (number) (H1299 cells; 3.0 μM): 991 | Upregulated Genes: AZA-Specific / DAC-Specific Genes (number) (H1299 cells; 3.0 μM): 1368 | Downregulated Genes: Genes in Common (number) (H1299 cells; 3.0 μM): 153 | Upregulated Genes: Genes in Common (number) (H1299 cells; 3.0 μM): 173 | Cell cycle distribution (NIM DAPI) (H460 cells [4]; 30-hour treatment, 0.3-10 μM): induced accumulation of cells in Sub-G1 | Cell cycle distribution (NIM DAPI) (H460 cells [4]; 60-hour treatment, 0.3-10 μM): decrease of cells in G0/G1 with a concomitant increase of cells in Sub-01 | Cell cycle distribution (NIM DAPI) (H460 cells [4]; summary of studies): induced accumulation of cells in Sub-G1

Nc1ncn([C@H]2C[C@H](O)[C@@H](CO)O2)c(=O)n1 [DAC, 5-aza-2′-deoxycytidine]
Induction of Histone H2AX phosphorylation (H460 cells [1]): did not have any effect | Induction of PARP cleavage (H460 cells [1]; 24 h and 48 h): did not have any effect | p21 expression (H460 cells [1]; 24 h and 48 h, dose-dependent): induce | p53 expression (H460 cells [1]; 24 h and 48 h, dose-dependent): induce | Early- and late-apoptotic cell populations (AnnexinV/7-AAD) (A549 cells [2]; 48-hour treatment): very slight increase in these cell populations | Early- and late-apoptotic cell populations (AnnexinV/7-AAD) (A549 cells [2]; 72-hour treatment): very slight increase in these cell populations; also recorded: slight increase in early-apoptotic (AnnexinV^+ 7-AAD^−) cells only | DNMT1 depletion (DNMT1): time- and dose-dependent depletion | Fold more genes modulated than AZA (A549 cells [3]; A549 (stated for A549 and H1299 together), 0.3 μM): 4- to 20 fold | Downregulated Genes: AZA-Specific / DAC-Specific Genes (number) (A549 cells [3]; 0.3 μM): 55 | Upregulated Genes: AZA-Specific / DAC-Specific Genes (number) (A549 cells [3]; 0.3 μM, fold change ≧1.7): 139 | Downregulated Genes: Genes in Common (number) (A549 cells [3]; 0.3 μM): 11 | Upregulated Genes: Genes in Common (number) (A549 cells [3]; 0.3 μM): 17 | Downregulated Genes: AZA-Specific / DAC-Specific Genes (number) (A549 cells [3]; 1.0 μM): 111 | Upregulated Genes: AZA-Specific / DAC-Specific Genes (number) (A549 cells [3]; 1.0 μM): 261 | Downregulated Genes: Genes in Common (number) (A549 cells [3]; 1.0 μM): 30 | Upregulated Genes: Genes in Common (number) (A549 cells [3]; 1.0 μM): 45 | Downregulated Genes: AZA-Specific / DAC-Specific Genes (number) (A549 cells [3]; 3.0 μM): 239 | Upregulated Genes: AZA-Specific / DAC-Specific Genes (number) (A549 cells [3]; 3.0 μM): 413 | Downregulated Genes: Genes in Common (number) (A549 cells [3]; 3.0 μM): 55 | Upregulated Genes: Genes in Common (number) (A549 cells [3]; 3.0 μM): 66 | Regulation of genes in the Response to DNA Damage Stimulus/DNA Repair biogroup (A549 cells [3]): general downregulation | HillSlope (H23 cells): −0.3790 | LogIC50 (H23 cells): 1.268 | EC50 (H23 cells): 18.5 µM | IC50 (H23 cells): 18.5 µM | Fold more genes modulated than AZA (H1299 cells; H1299 (stated for A549 and H1299 together), 0.3 μM): 4- to 20 fold | Downregulated Genes: AZA-Specific / DAC-Specific Genes (number) (H1299 cells; 0.3 μM): 121 | Upregulated Genes: AZA-Specific / DAC-Specific Genes (number) (H1299 cells; 0.3 μM): 214 | Downregulated Genes: Genes in Common (number) (H1299 cells; 0.3 μM): 45 | Upregulated Genes: Genes in Common (number) (H1299 cells; 0.3 μM): 55 | Downregulated Genes: AZA-Specific / DAC-Specific Genes (number) (H1299 cells; 1.0 μM): 170 | Upregulated Genes: AZA-Specific / DAC-Specific Genes (number) (H1299 cells; 1.0 μM): 238 | Downregulated Genes: Genes in Common (number) (H1299 cells; 1.0 μM): 107 | Upregulated Genes: Genes in Common (number) (H1299 cells; 1.0 μM): 135 | Downregulated Genes: AZA-Specific / DAC-Specific Genes (number) (H1299 cells; 3.0 μM): 257 | Upregulated Genes: AZA-Specific / DAC-Specific Genes (number) (H1299 cells; 3.0 μM): 303 | Downregulated Genes: Genes in Common (number) (H1299 cells; 3.0 μM): 153 | Upregulated Genes: Genes in Common (number) (H1299 cells; 3.0 μM): 173 | Cell cycle distribution (NIM DAPI) (H460 cells [4]; 30-hour treatment, 0.3-10 μM): induced accumulation of cells in Sub-G1 | Cell cycle distribution (NIM DAPI) (H460 cells [4]; 60-hour treatment, 0.3-10 μM): slight increase in Sub-G1 | Cell cycle distribution (NIM DAPI) (H460 cells [4]; summary of studies): induced accumulation of cells in Sub-G1
